From patent US20090131356A1, “miR-15, miR-26, miR-31, miR-145, miR-147, miR-188, miR-215, miR-216, miR-331, mmu-miR-292-3P REGULATED GENES AND PATHWAYS AS TARGETS FOR THERAPEUTIC INTERVENTION” (ASURAGEN, INC., priority 2006, published 2009)

Experiments:
[1] = tested on: human H460 lung cancer xenografts; assay: Established H460 lung tumor xenograft, intratumoral injection of lipid-formulated miRNA; format: in vivo, NOD/SCID mice; details: intratumoral 6.25 μg on days 11, 14 and 17, siPORT amine formulation; day 19
From the text: Delivery of hsa-miR-147 into human lung cancer cells prior to implantation into the animal inhibited the formation of lung tumor xenografts. […] To explore this possibility, 3×10^6 human H460 non-small cell lung cancer cells were mixed with BD Matrigel™, (BD Biosciences; San Jose, Calif., USA; cat. no. 356237) in a 1:1 ratio and subcutaneously injected into the lower back of each of 23 NOD/SCID mice (Charles River Laboratories, Inc.; Wilmington, Mass., USA). Once animals developed palpable tumors (day 11 post xenograft implantation), each animal in a group of six received intratumoral injections of 6.25 μg hsa-miR-147 (Dharmacon, Lafayette, Colo.) formulated with the lipid-based siPORT™ amine delivery agent (Ambion, Austin, Tex.; cat. no. AM4502) on days 11, 14 and 17. A control group of six animals each received intratumoral injections of 6.25 μg negative control miRNA (NC; Dharmacon, Lafayette, Colo.), following the same injection schedule that was used for hsa-miR-147. Given an average mouse weight of 20 g, this dose equals 0.3125 mg/kg. […] Caliper measurements of tumors were taken every 1-2 days, and tumor volumes were calculated using the formula, Volume=length×width×width/2, in which the length is greater than the width.

[2] = tested on: human A549 lung cancer xenografts; assay: A549 lung cancer xenograft, cells electroporated with miRNA before implantation; format: in vivo, NOD/SCID mice; details: cells electroporated with 5 μg miRNA, injected subcutaneously; tumors measured days 14-20; vs negative control miRNA
Method: The inventors assessed the growth-inhibitory activity of hsa-miR-147 in a human lung cancer xenograft grown in immunodeficient mice. Hsa-miR-147 was delivered into A549 lung cancer cells via electroporation using the BioRad GenePulserXcell™ instrument with the following settings: 15×10^6 cells with 5 μg miRNA in 200 μl OptiMEM, square wave pulse at 150 V for 10 ms. A total of 30×10^6 A549 cells was used to 5×10^6 electroporated cells were mixed with matrigel in a 1:1 ratio and injected subcutaneously into the flank of NOD/SCID mice. As a negative control, A549 cells were electroporated with negative control miRNA (pre-miR-NC#2, Ambion) as describe above. NC miRNA-treated cells were injected into the opposite flank of the same animal to control for animal-to-animal variability. A total of 30×10^6 A549 cells per hsa-miR-147 and NC was used to accommodate 5 injections into 5 animals. Size measurements of tumors started 14 days after injection once tumors have reached a measurable size. Length and width of tumors were determined every day for the following 6 days. Tumor volumes were calculated using the formula V=length×width^2/2 in which the length is greater than the width. Tumor volumes derived from NC-treated cells and hsa-miR-147-treated cells were averaged and plotted over time (FIG. 5). Standard deviations are shown in the graph. […]

[3] = tested on: HCC2935 cells; assay: Alamar Blue proliferation assay, HCC2935; format: cell-based, human; details: 30 nM, normalized to negative control miRNA (100% proliferation)
From the text: The inventors assessed the therapeutic effect of hsa-miR-147 for lung cancer by using 12 individual lung cancer cell lines. To measure cellular proliferation of lung cancer cells, the following parental non-small cell lung cancer (NSCLC) cells were used: cells derived from lung adenocarcinoma (A549, H1299, H522, H838, Calu-3, HCC827, HCC2935), cells derived from lung squamous cell carcinoma (H520, H226), cells derived from lung adenosquamous cell carcinoma (H596), cells derived from lung bronchioalveolar carcinoma (H1650), and cells derived from lung large cell carcinoma (H460). In addition to these parental cell lines, highly metastatic NSCLC cells were used that stably express the firefly luciferase gene: A549-luc, H460-luc, HCC827-luc, H1650-luc, H441-luc. Unlike the parental cell lines, these metastatic cells readily migrate to distant sites of the test animal and form metastases upon subcutaneous, orthotopic, or intravenous injection. Synthetic hsa-miR-147 or negative control miRNA was delivered via lipid-based transfection into A549, H1299, H522, H838, Calu-3, HCC827, HCC2935, H520, H596, H1650, H460, A549-luc, H460-luc, HCC827-luc, H1650-luc, H441-luc cells and via electroporation into H226 cells. […]

For “hsa-miR-147: Synthetic pre-miR-147 (Ambion AM17100; Dharmacon in vivo); mature sequence GUGUGUGGAAAUGCUUCUGC, MIMAT0000251, SEQ ID NO:114 (synthetic pre-miR (Ambion/Dharmacon), chemistry not given here; listed as Homo sapiens)”, the average tumor size [1] was 260 mm^3, the “tumor growth of A549 xenograft” value [2] was “inhibited tumor growth in vivo” and the “% proliferation” value [3] was 60.35%.
